In series [1] the test system is bloodstream form of T. brucei. Description: Transferrin uptake (receptor-mediated endocytosis). It counts as cell-based, Trypanosoma brucei. The note with it: concentration twice the EC50, 18 h. The source says:
Highly efficient and rapid endocytosis is one of the most important cellular processes for this infective parasite to survive and multiply within the bloodstream of the host, and the activity of TbPI3KIII is essential for this process.[25] To gain insight on the possible target(s) of our compounds, we carried out transferrin uptake experiments to measure receptor-mediated endocytosis after drug treatment. […] Compound 16e induced a phenotype defective in endocytosis (Figure 3); however, the PIP3 molecular species identified (42:7-9) was not the same PIP3 molecular species identified in WT cells (44:9-12).
Two million trypanosomes were harvested and washed with TDB-glucose plus 1% BSA, resuspended in 250 μL in the same buffer, and incubated for 10 min at 37 °C prior to the addition of 5 μg of AlexaFluor 488-conjugated human holo-Tf (Invitrogen). Incubations were carried out for 0 (no Tf) or 3 min at 37 °C, after which cells were immediately fixed in 4 °C in 1% PFA diluted in cold PBS for at least 1 h. Parasites were finally washed twice with PBS and analyzed with a Becton Dickinson FACSCalibur flow cytometer (BD Biosciences) using BD CellQuest Pro version 4.0.2 software.

Series [2] has as its system Bloodstream form culture of T. b. brucei. Description: Cell cycle analysis by FACS (propidium iodide). The class given is cell-based, Trypanosoma brucei brucei. The note with it: concentration twice the EC50, 18 h. Here is the method:
For cell cycle analysis, samples (1.5 × 10^6 cells) were collected, centrifuged (1400g at 4 °C for 5 min), and washed in trypanosome dilution buffer (TDB). The cell pellets were gently suspended in 50 μL of TDB and permeabilized by adding 1 μL of saponin (25 mg/mL) for 3 min. It was then mixed with another 450 μL of TDB. RNase and propidium iodide (PI) were added to the suspension at final concentrations of 10 and 20 μg/mL, respectively, and the samples were incubated at room temperature for 30 min and then stored at 4 °C. The DNA content of PI-stained cells and the percentage of cells in each phase of the cell cycle (10 000 cells per sample) were analyzed with a Becton Dickinson FACSCalibur flow cytometer (BD Biosciences) using BD CellQuest Pro version 4.0.2 software.
Figure S3. Cell Cycle analysis of parasites upon dosage with NVP-BEZ235 derivative.
Bloodstream form culture of T. b. brucei was subjected to different drugs and analyzed by
Fluorescencecactivated cell sorter (FACS) for DNA content stained by propidium iodide (PI).
Cell cultures were incubated during 18 h with various NVPcBEZ235 derivatives using DMSO as
a control treatment. Mean ± SD of three independent experiments are shown.
In general terms: Flow cytometry measures light scatter and fluorescence of single cells or particles in a stream.

Series [3] has as its system phosphorylated PIs (PIP, PIP3) in T. brucei cells. In words: Phospholipidomics analysis (ES-MS of lipid extracts). The class given is cell-based, Trypanosoma brucei. The note with it: 200 nM, 12 h; negative ion mode scans 950–1300 m/z. The source says: We originally selected 1 to investigate its potential as an trypanocidal agent on the basis of its activity as a PI3K/mTOR inhibitor in mammalian cells and the fact that PI3K activity is essential for the bloodstream form of the T. brucei parasite.[25] In the interest of elucidating the potential mechanism of action against T. brucei cells, we performed a lipidomic analysis to discern if PI kinases are likely targets of these analogues. Lipid extracts of cells grown in the presence of the best compounds at sublethal doses (200 nM) for 12 h were analyzed by ES-MS. […] There were no significant differences in the phosphatidylcholine (PC) and sphingomylein (SM) species between the control and cells grown in the presence of the other compounds (Figure S1). […] Alternatively, as is often the case, changes in the lipid profile could be a reflection in the cells succumbing to (or adapting to) a defect in a major cellular process, such as endo- or exocytosis or cell cycle arrest.
Because these compounds are thought to target PI3K, negative ion mode scans between 950 and 1300 m/z were conducted to focus upon singly and multiply phosphorylated PIs.
Total lipids from mid log phase cells were extracted by the method of Bligh and Dyer.[30] Briefly, mid log phase cells were collected by centrifugation (800g, 10 min), washed with PBS, resuspended in 100 μL of TDB-glucose, transferred to a glass tube containing 375 μL of 1:2 (v/v) CHCl3/MeOH, and vortexed. The sample was agitated vigorously for a further 10–15 min. The sample was made biphasic by the addition of 125 μL of CHCl3 and vortexed, and then 125 μL of H2O was added. The sample was vortexed again and centrifuged at 3000g at rt for 10 min. The lower (organic) phase was transferred into a new glass vial, and the aqueous phase was re-extracted with the fresh lower phase. The resultant lower phase lipid extract was dried under a stream of nitrogen and stored at 4 °C.
Lipid extracts were dissolved in 15 μL of CHCl3/MeOH (1:2) and 15 μL of acetonitrile/isopropanol/water (6:7:2) and analyzed with a triple quadrupole mass spectrometer (Absceix 4000 QTrap) equipped with a nanoelectrospray source. […] The lipid extracts were analyzed in both positive and negative ion modes using a capillary voltage of 1.25 kV. […] Tandem mass spectra (MS/MS) were obtained with collision energies as follows: 35–45 V, PC/SM in positive ion mode, parent-ion scanning of m/z 184; 35–55 V, PI in negative ion mode, parent-ion scanning of m/z 241; 35–65 V, PE in negative ion mode, parent-ion scanning of m/z 196; 20–35 V, PS in negative ion mode, neutral loss scanning of m/z 87; and 40–90 V, for all glycerophospholipids (including PA, PG, and cardiolipin) detected by precursor scanning for m/z 153 in negative ion mode. […]

The mark [4] stands for this setting: Table 1, Selectivity = TC50/EC50 (HepG2 / T. brucei).
The mark [5] stands for this setting: Table 2, Selectivity = TC50/EC50.

Like-named read-outs stand apart in the source and are kept apart here. Marks after values point to notes of the source that are not given here.

For `Cn1c(=O)n(-c2ccc(C(C)(C)C#N)cc2)c2c3cc(-c4ccncc4)ccc3ncc21` [Compound 4a], the “HepG2 TC50” value in the series on HepG2 cell line (human, 48 h) was found to be 3.43 µM.
With `Cn1c(=O)n(-c2ccc(C(C)(C)C#N)cc2)c2c3cc(-c4cccnc4)ccc3ncc21` [Compound 4b, 2-Methyl-2-(4-(3-methyl-2-oxo-8-(pyridin-3-yl)-2,3-dihydro-1H-imidazo[4,5-c]quinolin-1-yl)phenyl)propanenitrile], in the series with HepG2 cell line (human, 48 h), the “HepG2 cytotoxicity TC50” value came to 575 nM.
Regarding `Cn1c(=O)n(-c2ccc(C(C)(C)C#N)cc2)c2c3cc(-c4ccccc4)ccc3ncc21` [Compound 4c, 2-Methyl-2-(4-(3-methyl-2-oxo-8-phenyl-2,3-dihydro-1H-imidazo[4,5-c]quinolin-1-yl)phenyl)propanenitrile], the “HepG2 TC50” value in the series on HepG2 cell line (human, 48 h) is listed as 1.82^d μM.
The molecule `Cn1c(=O)n(-c2ccc(C(C)(C)C#N)cc2)c2c3cc(-c4ccc(C(F)(F)F)nc4)ccc3ncc21` [Compound 4d, 2-Methyl-2-(4-(3-methyl-2-oxo-8-(6-(trifluoromethyl)pyridin-3-yl)-2,3-dihydro-1H-imidazo[4,5-c]quinolin-1-yl)phenyl)propanenitrile] came in with a Selectivity in the series with HepG2 cell line (setting [4]) of over 470.
In the case of `Cn1cc(-c2ccc3ncc4c(c3c2)n(-c2ccc(C(C)(C)C#N)cc2)c(=O)n4C)cn1` [Compound 4e, 2-Methyl-2-(4-(3-methyl-8-(1-methyl-1H-pyrazol-4-yl)-2-oxo-2,3-dihydro-1H-imidazo[4,5-c]quinolin-1-yl)phenyl)propanenitrile], the “transferrin uptake / endocytosis” value in series [1] is recorded as “did not significantly reduce transferrin endocytosis”. The cell cycle progression entry in series [2] was “reducing the proportion of cells in G1 and increasing multinucleated cells”. The “phosphorylated PI (PIP) levels vs control cells” value in series [3] is “significant (albeit incomplete) reduction in PIP levels”.
For the molecule `Cn1c(=O)n(-c2ccc(C(C)(C)C#N)cc2)c2c3cc(-c4cc5ccccc5s4)ccc3ncc21` [Compound 4f, 2-(4-(8-(Benzo[b]thiophen-2-yl)-3-methyl-2-oxo-2,3-dihydro-1H-imidazo[4,5-c]quinolin-1-yl)phenyl)-2-methylpropanenitrile], the Selectivity with HepG2 cell line (setting [4]) is given as over 460. Further, the “HepG2 toxicity (in words)” value in the series on HepG2 cell line (human, 48 h) is listed as “no HepG2 toxicity observed”.
`CN1CCN(c2ccc3ncc4c(c3c2)n(-c2ccc(C(C)(C)C#N)cc2)c(=O)n4C)CC1` [Compound 5a, 2-Methyl-2-(4-(3-methyl-8-(4-methylpiperazin-1-yl)-2-oxo-2,3-dihydro-1H-imidazo[4,5-c]quinolin-1-yl)phenyl)propanenitrile] showed a Selectivity in the series with HepG2 cell line (setting [4]) of over 5.
For the molecule `Cn1c(=O)n(-c2ccc(C(C)(C)C#N)cc2)c2c3cc(N4CCOCC4)ccc3ncc21` [Compound 5b, 2-Methyl-2-(4-(3-methyl-8-morpholino-2-oxo-2,3-dihydro-1H-imidazo[4,5-c]quinolin-1-yl)phenyl)propanenitrile], the Selectivity with HepG2 cell line (setting [4]) is recorded as over 24.
In the series with HepG2 cell line (setting [4]), `Cn1c(=O)n(-c2ccc(C(C)(C)C#N)cc2)c2c3cc(N)ccc3ncc21` [Compound 6, 2-(4-(8-Amino-3-methyl-2-oxo-2,3-dihydro-1H-imidazo[4,5-c]quinolin-1-yl)phenyl)-2-methylpropanenitrile] returned a Selectivity of over 4.
As for `CC(=O)Nc1ccc2ncc3c(c2c1)n(-c1ccc(C(C)(C)C#N)cc1)c(=O)n3C` [Compound 7, N-(1-(4-(2-Cyanopropan-2-yl)phenyl)-3-methyl-2-oxo-2,3-dihydro-1H-imidazo[4,5-c]quinolin-8-yl)acetamide], in the series on HepG2 cell line (setting [4]), the Selectivity is over 5.
Still for that read-out and setting: with `Cc1ccc2ncc3c(c2c1)n(-c1ccc(C(C)(C)C#N)cc1)c(=O)n3C` [Compound 8, 2-(4-(3,8-Dimethyl-2-oxo-2,3-dihydro-1H-imidazo[4,5-c]quinolin-1-yl)phenyl)-2-methylpropanenitrile] the figure was over 10.
In turn, `Cn1c(=O)n(-c2ccc(C(C)(C)C#N)cc2)c2c3ccccc3ncc21` [Compound 9, 2-Methyl-2-(4-(3-methyl-2-oxo-2,3-dihydro-1H-imidazo[4,5-c]quinolin-1-yl)phenyl)propanenitrile] had a Selectivity in the series on HepG2 cell line (setting [4]) of over 80. Further, in the series on HepG2 cell line (human, 48 h), the “HepG2 TC50” value is over 50 µM.
Regarding `Cn1c(=O)n(-c2ccc(C(C)(C)C#N)cc2)c2c3cc(C#Cc4cccnc4)ccc3ncc21` [Compound 10, reference compound], the “HepG2 TC50” value with HepG2 cell line (human, 48 h) is on record as 0.14^d μM.
In turn, `Cn1c(=O)n(-c2ccc(C(F)(F)F)cc2)c2c3cc(-c4cnc5ccccc5c4)ccc3ncc21` [Compound 16a, 3-Methyl-8-(quinolin-3-yl)-1-(4-(trifluoromethyl)phenyl)-1H-imidazo[4,5-c]quinolin-2(3H)-one] showed a Selectivity in the series on HepG2 cell line (setting [5]) of over 240.
In turn, `Cn1c(=O)n(-c2ccc(C#N)cc2)c2c3cc(-c4cnc5ccccc5c4)ccc3ncc21` [Compound 16b, 4-(3-Methyl-2-oxo-8-(quinolin-3-yl)-2,3-dihydro-1H-imidazo[4,5-c]quinolin-1-yl)benzonitrile] gave a Selectivity with HepG2 cell line (setting [5]) of over 540.
For `Cn1c(=O)n(-c2ccccc2)c2c3cc(-c4cnc5ccccc5c4)ccc3ncc21` [Compound 16c, 3-Methyl-1-phenyl-8-(quinolin-3-yl)-1H-imidazo[4,5-c]quinolin-2(3H)-one], in the series on HepG2 cell line (setting [5]), the Selectivity was over 1000.
Same read-out and setting: with `Cn1c(=O)n(-c2ccc(CC#N)cc2)c2c3cc(-c4ccncc4)ccc3ncc21` [Compound 16d, 2-(4-(3-Methyl-2-oxo-8-(pyridin-4-yl)-2,3-dihydro-1H-imidazo[4,5-c]quinolin-1-yl)phenyl)acetonitrile] the figure was over 560.
`CN(C)c1ccc(-n2c(=O)n(C)c3cnc4ccc(-c5ccncc5)cc4c32)cc1` [Compound 16h, 1-(4-(Dimethylamino)phenyl)-3-methyl-8-(pyridin-4-yl)-1H-imidazo[4,5-c]quinolin-2(3H)-one]: the “HepG2 TC50” value in the series on HepG2 cell line (human, 48 h) was determined as 2.34 µM.
For `Cn1c(=O)n(-c2ccc(N3CCOCC3)cc2)c2c3cc(-c4ccncc4)ccc3ncc21` [Compound 16i, 3-Methyl-1-(4-morpholinophenyl)-8-(pyridin-4-yl)-1H-imidazo[4,5-c]quinolin-2(3H)-one], the Selectivity with HepG2 cell line (setting [5]) is over 24.

The record behind these values is publication PMC4099174 (Journal of Medicinal Chemistry, 2014).
